Test results: patent US8518678B2, “Strain comprising increased expression of a CFA coding region for butanol production” (Butamax(TM) Advanced Biofuels LLC, priority 2007, dated 2013)
Like-named read-outs stand apart in the source and are kept apart here.

Experiments:
[1] = system: Lactobacillus plantarum PN2001; details: shake flask; for PN2001, % Growth inhibition: semi-synthetic LAB medium pH7; for PN2001 (cfa1 plasmid) μ: semi-synthetic LAB medium pH7, 30° C
[2] = system: Lactobacillus plantarum PN2014; details: shake flask; for PN2014, % Growth inhibition: semi-synthetic LAB medium pH7; for PN2014 (control plasmid) μ: semi-synthetic LAB medium pH7, 30° C
[3] = system: butanol non-producing bacterial cells; experiment: Feeding with fatty acids followed by screening for butanol tolerance; type: cell-based; details: fed to cells; among about ten different fatty acids tested
Source text: The discovery came from results of studies on feeding butanol non-producing bacterial cells with different fatty acids followed by screening for butanol tolerance.

[4] = system: Lactobacillus plantarum PN1312; experiment: Change in OD600 in S36 medium, PN1312 (spoT mutant, cfa1); type: cell-based; details: 3% isobutanol
Source text: (§1) The purpose of this Example was to test the effect of a combination of cfa1 overexpression and spoT mutation on the isobutanol tolerance of Lactobacillus plantarum. To create a strain with both gene modifications, pFP996-atpB-cfa1 (described in Example 1; also called pFP996-1)) was transformed into the MS0280 strain (described in Example 4; also called PN1300) creating strain PN1312. For a control strain, pFP996 (described in Example 1) was transformed into MS0280 creating PN1310. Strain PN1312, which contained a multicopy expression plasmid with cfa1, was compared to strain PN1310, which contained the vector control.
(§2) The growth of the strains over time was followed, and tolerance compared as follows. The strains were cultured in S36 medium (contains 10 mM ammonium sulfate, 5 mM potassium phosphate buffer, pH 6.0, 50 mM MES, pH 6.0, 2 mM MgCl2, 0.7 mM CaCl2, 50 μM MnCl2, 1 μM FeCl3, 1 μM ZnCl2, 1.72 μM CuCl2, 2.53 μM CoCl2, 2.42 μM Na2MoO4, 2 μM thiamine hydrochloride, 0.01 M glucose, 0.2% yeast extract and 0.01% casamino acids) overnight at 30° C. under anaerobic conditions. The next day, cultures were started from the overnight cultures in fresh medium, with initial OD600 values of 0.18. These cultures were incubated at 30° C. under anaerobic conditions for 4 hours. During this time, PN1310 reached an OD600 of 0.83, and PN1312 reach an OD600 of 0.61. […]

L. plantarum PN2003 = experiment: Bioscreen-C growth analysis in MRS medium, PN2003 (cfa1); type: cell-based, Lactobacillus plantarum; details: strain PN2003 (cfa1), 2.25% isobutanol
Experimental: (§3) For Bioscreen-C (instrument purchased from Growth Curves USA, Piscataway N.J.) growth curves, the cultures were grown overnight in MRS medium containing 1 μg/ml erythromycin at 30° C. The next day, these were diluted to OD600 of 0.1 in the wells of the Bioscreen plate with MRS medium containing 1 μg/ml erythromycin and either 2.25% (w/v) isobutanol or no isobutanol at 30° C.
(§4) L. plantarum strains PN2001, PN2003, PN2005, PN2010, PN2012, and PN2014 were tested for growth in a Bioscreen-C growth curve machine in the presence of isobutanol as described in General Methods. These growth assays were conducted in MRS medium, which contains 1 g/L polysorbate 80 (commercially also known as Tween® 80) that serves as a source of oleic acid. Erythromycin at 1 μg/ml was added to the medium to maintain the plasmids. It is well known that L. plantarum grown in MRS medium incorporates oleic acid into membrane lipids (Johnsson et al. (1995) Appl. Environ. Microbiol. 61:4497-4499).

E. coli strain DPD4658 = experiment: Bioscreen-C growth in LB medium, DPD4658 (control lacZ overexpression); type: cell-based; details: 3 hour and 15 minute time point; for OD600 (+/− st dev): LB medium, 37° C
Experimental: (§5) E. coli strains DPD4655 and DPD4658 were grown overnight in LB medium containing 100 μg/ml ampicillin at 37° C. The next day, these were diluted to OD600 of 0.1 in the wells of a Bioscreen-C plate (instrument and plates purchased from Growth Curves USA, Piscataway N.J.) with LB medium and either 0.4%, 0.8% (w/v) isobutanol or no isobutanol at 37° C. in triplicate. OD was monitored and the OD at the 3 hour and 15 minute time point was used to calculate the % of growth in the presence of isobutanol as compared with its absence, given in Table 15.

L. plantarum PN2005 = experiment: Bioscreen-C growth analysis in MRS medium, PN2005 (cfa2); type: cell-based, Lactobacillus plantarum; details: strain PN2005 (cfa2)
Experimental: as §3, §4

L. plantarum PN2012 = experiment: Bioscreen-C growth analysis in MRS medium, PN2012 (control); type: cell-based, Lactobacillus plantarum; details: strain PN2012 (no gene on plasmid)
Experimental: as §3, §4

[5] = system: Lactobacillus plantarum PN2001; experiment: microbe, parasite or virus in culture; details: Lactiplantibacillus plantarum, PN2001, pH 7, read-out: PN2001, % Growth inhibition
[6] = system: Lactobacillus plantarum PN1310; experiment: Change in OD600 in S36 medium, PN1310 (spoT mutant, vector); type: cell-based; details: 3% isobutanol
Source text: as §1, §2

E. coli strain DPD4655 = experiment: Bioscreen-C growth in LB medium, DPD4655 (cfa overexpression); type: cell-based; details: 3 hour and 15 minute time point; for OD600 (+/− st dev): LB medium, 37° C
Experimental: as §5

[7] = system: Lactobacillus plantarum PN2014; experiment: microbe, parasite or virus in culture; details: Lactiplantibacillus plantarum, PN2014, pH 7, read-out: PN2014, % Growth inhibition
L. plantarum PN2014 = experiment: Bioscreen-C growth analysis in MRS medium, PN2014 (control); type: cell-based, Lactobacillus plantarum; details: strain PN2014 (no gene on plasmid)
Experimental: as §3, §4

L. plantarum PN2001 = experiment: Bioscreen-C growth analysis in MRS medium, PN2001 (cfa1); type: cell-based, Lactobacillus plantarum; details: strain PN2001 (cfa1)
Experimental: as §3, §4

L. plantarum PN2010 = experiment: Bioscreen-C growth analysis in MRS medium, PN2010 (cfa2); type: cell-based, Lactobacillus plantarum; details: strain PN2010 (cfa2)
Experimental: as §3, §4

[8] = MRS medium (source of oleic acid), 30° C

CCC(C)O (stereo not shown) [2-butanol]
PN2001, % Growth inhibition ([1]; 2-butanol 3.5% w/v): 54% | PN2001 (cfa1 plasmid) μ ([1]; 2-butanol 3.5% w/v): 0.132 h⁻¹ | PN2001, % Growth inhibition ([1]; 2-butanol 4.0% w/v): 56% | PN2001 (cfa1 plasmid) μ ([1]; 2-butanol 4.0% w/v): 0.125 h⁻¹ | PN2001, % Growth inhibition ([1]; 2-butanol 4.25% w/v): 61% | PN2001 (cfa1 plasmid) μ ([1]; 2-butanol 4.25% w/v): 0.111 h⁻¹ | PN2001, % Growth inhibition ([1]; 2-butanol 4.5% w/v): 62% | PN2001 (cfa1 plasmid) μ ([1]; 2-butanol 4.5% w/v): 0.108 h⁻¹ | PN2001, % Growth inhibition ([1]; 2-butanol 4.75% w/v): 76% | PN2001 (cfa1 plasmid) μ ([1]; 2-butanol 4.75% w/v): 0.068 h⁻¹ | PN2001, % Growth inhibition ([1]; 2-butanol 5.0% w/v): 73% | PN2001 (cfa1 plasmid) μ ([1]; 2-butanol 5.0% w/v): 0.078 h⁻¹ | PN2014, % Growth inhibition ([2]; 2-butanol 3.5% w/v): 48% | PN2014 (control plasmid) μ ([2]; 2-butanol 3.5% w/v): 0.153 h⁻¹ | PN2014, % Growth inhibition ([2]; 2-butanol 4.0% w/v): 59% | PN2014 (control plasmid) μ ([2]; 2-butanol 4.0% w/v): 0.123 h⁻¹ | PN2014, % Growth inhibition ([2]; 2-butanol 4.25% w/v): 47% | PN2014 (control plasmid) μ ([2]; 2-butanol 4.25% w/v): 0.158 h⁻¹ | PN2014, % Growth inhibition ([2]; 2-butanol 4.5% w/v): 79% | PN2014 (control plasmid) μ ([2]; 2-butanol 4.5% w/v): 0.061 h⁻¹ | PN2014, % Growth inhibition ([2]; 2-butanol 4.75% w/v): 89% | PN2014 (control plasmid) μ ([2]; 2-butanol 4.75% w/v): 0.034 h⁻¹ | PN2014, % Growth inhibition ([2]; 2-butanol 5.0% w/v): 100% | PN2014 (control plasmid) μ ([2]; 2-butanol 5.0% w/v): 0.00 h⁻¹

CCCCCCCC[C@@H]1C[C@@H]1CCCCCCCC(=O)O [dihydrosterculic acid]
effect of feeding on butanol tolerance [3]: increased butanol tolerance

CC(C)CO [isobutanol]
2 h Δ OD ([4]; PN1312 (cfa1), S36 medium, 30° C, anaerobic): 0.5 | inhibited for growth ([4]; PN1312 (cfa1 overexpression)): 59% | % Growth inhibition (L. plantarum PN2003): 34% | % OD +isobutanol/−isobutanol (E. coli strain DPD4658; isobutanol 0.4% (w/v)): 63% | OD600 (+/− st dev) (E. coli strain DPD4658; isobutanol 0.4% (w/v)): 0.259 +/− 0.004 | % OD +isobutanol/−isobutanol (E. coli strain DPD4658; isobutanol 0.8% (w/v)): 42% | OD600 (+/− st dev) (E. coli strain DPD4658; isobutanol 0.8% (w/v)): 0.174 +/− 0.011 | % Growth inhibition (L. plantarum PN2005; 2.25% isobutanol, MRS medium): 39% | μ (2.25% isobutanol) (L. plantarum PN2005; [8]): 0.31 h⁻¹ | growth in the presence of isobutanol (FIG. 1A) ([1]; PN2001, 3% isobutanol): grew | PN2001 (cfa1 plasmid) μ ([1]; isobutanol 2.25% w/v): 0.187 h⁻¹ | PN2001 (cfa1 plasmid) μ ([1]; isobutanol 2.5% w/v): 0.119 h⁻¹ | PN2001 (cfa1 plasmid) μ ([1]; isobutanol 2.75% w/v): 0.104 h⁻¹ | PN2001 (cfa1 plasmid) μ ([1]; isobutanol 3.0% w/v): 0.029 h⁻¹ | PN2001 (cfa1 plasmid) μ ([1]; isobutanol 3.2% w/v): 0.00 h⁻¹ | % Growth inhibition (L. plantarum PN2012; 2.25% isobutanol, MRS medium): 51% | μ (2.25% isobutanol) (L. plantarum PN2012; [8]): 0.20 h⁻¹ | inhibition at 2.25 % strength [5]: 46% | inhibition at 2.5 % strength [5]: 66% | inhibition at 2.75 % strength [5]: 70% | inhibition at 3 % strength [5]: 92% | inhibition at 3.2 % strength [5]: 100% | inhibited for growth ([6]; PN1310 (vector alone)): 75% | 2 h Δ OD ([6]; PN1310 (vector), S36 medium, 30° C, anaerobic): 0.3 | % OD +isobutanol/−isobutanol (E. coli strain DPD4655; isobutanol 0.4% (w/v)): 72% | OD600 (+/− st dev) (E. coli strain DPD4655; isobutanol 0.4% (w/v)): 0.318 +/− 0.005 | % OD +isobutanol/−isobutanol (E. coli strain DPD4655; isobutanol 0.8% (w/v)): 50% | OD600 (+/− st dev) (E. coli strain DPD4655; isobutanol 0.8% (w/v)): 0.220 +/− 0.006 | growth in the presence of isobutanol (FIG. 1B) ([2]; PN2014, 3% isobutanol): did not grow | PN2014 (control plasmid) μ ([2]; isobutanol 2.25% w/v): 0.170 h⁻¹ | PN2014 (control plasmid) μ ([2]; isobutanol 2.5% w/v): 0.118 h⁻¹ | PN2014 (control plasmid) μ ([2]; isobutanol 2.75% w/v): 0.037 h⁻¹ | PN2014 (control plasmid) μ ([2]; isobutanol 3.0% w/v): 0.00 h⁻¹ | PN2014 (control plasmid) μ ([2]; isobutanol 3.2% w/v): 0.00 h⁻¹ | inhibition at 2.25 % strength [7]: 50% | inhibition at 2.5 % strength [7]: 66% | inhibition at 2.75 % strength [7]: 89% | inhibition at 3 % strength [7]: 100% | inhibition at 3.2 % strength [7]: 100% | % Growth inhibition (L. plantarum PN2014; 2.25% isobutanol, MRS medium): 42% | μ (2.25% isobutanol) (L. plantarum PN2014; [8]): 0.22 h⁻¹ | % Growth inhibition (L. plantarum PN2001; 2.25% isobutanol, MRS medium): 32% | μ (2.25% isobutanol) (L. plantarum PN2001; [8]): 0.32 h⁻¹ | % Growth inhibition (L. plantarum PN2010; 2.25% isobutanol, MRS medium): 39% | μ (2.25% isobutanol) (L. plantarum PN2010; [8]): 0.33 h⁻¹
